We go through two compounds from patent US20260306463A1, “SIK INHIBITORS TO TREAT CHRONIC KIDNEY DISEASE” (The General Hospital Corporation, priority 2023, published 2026).

The test system of experiment [1] is human kidney organoids. Put plainly: RT-qPCR in cisplatin-injured human kidney organoids. It counts as cell-based. The note with it: for proximal tubule marker genes / fibrosis/injury marker genes: panel; for fibrosis/injury marker genes: five cisplatin cycles (FIG. 12B). An excerpt: FIG. 8. SK-124 treatment restores gene expression changes in cisplatin-injured human kidney organoids. RNA was isolated from organoids treated as in FIG. 7 for RT-qPCR for the indicated genes. Injury markers (Pai-1, Fibronectin-1, and Co18a1) are induced by cisplatin treatment and reduced by SK-124. In contrast, the proximal tubule marker Lrp2 is reduced by cisplatin treatment and rescued by SK-124.
FIGS. 10A-10B. SK-124 treatment restores gene expression changes in cisplatin-injured human kidney organoids. RNA was isolated from organoids treated as in FIG. 9 with the indicated number of cisplatin cycles plus DMSO control (“Cis”) or SK-124 (10 μM; “Cis+SK”) for RT-qPCR. […] (B) Injury/fibrosis markers (FN-1, Co/8a1, and Pai-1) were induced by cisplatin and suppressed by SK-124.
FIGS. 12A-12B. SK-124 protects human kidney organoids from cisplatin injury in a dose-dependent manner. RNA was isolated from organoids treated as in FIG. 11 for RT-qPCR. (A) Proximal tubule marker genes are reduced by cisplatin and increased by SK-124. (B) Fibrosis/injury marker genes are induced by cisplatin and reduced by SK-124.
BJFF human induced pluripotent stem cells (hPSCs) were maintained on Geltrexcoated (Thermo Fisher Scientific) plates using StemFit Basic04 Complete (Ajinomoto Co. Inc.) as previously reported(25). The cells were passaged weekly using Accutase (STEMCELL Technologies) for dissociation and Y27632 (Tocris) for adhesion. Directed differentiation of hPSCs into kidney organoids has been published elsewhere (29). Briefly, hPSCs were differentiated into metanephric mesenchyme cells on day 8 by a three-step directed differentiation protocol. Metanephric mesenchyme was transferred into suspension culture in 96-well ultralow adhesion plates (Coming) and further differentiated into kidney organoids, as previously reported(25). Quality control measures of SIX2 immunostaining on day 8 of differentiation and CDH1, LTL, PODXL, CD146, MEIS1/2/3, and SYTOX-blue staining on day 21 were performed on all batches of kidney organoids to limit batch-to-batch heterogeneity. Kidney organoids were maintained in 200 μl of basal media consisting of Advanced RPMI (Thermo Fisher Scientific) and GlutaMAX (Thermo Fisher Scientific) in 96-well plates, as previously reported. Media changes were conducted three times weekly with removal of 90 [l and addition of 100 μl of fresh basal media.
For cisplatin induced injury, day 49 organoids were treated with 5 μM cisplatin in basal media after full media change. After 24 hours, full media exchanges were performed. This 24-hour treatment was performed twice a week, on day 52-53, day 56-57, day 59-60, and day 63-64 as well, for a total of five cisplatin treatments. Samples were obtained for RT-qPCR and immunostaining immediately following each 24-hour treatment with cisplatin, and from corresponding controls.
cDNA was prepared using Primescript RT kit (Takara Inc), with 750 ng RNA per reaction. RT-qPCR was performed by using PerfeCa® SYBR® Green FAstMix® ROX (Quanta bio) in the StepOnePlus™ Real-time PCR System (Applied Biosystems). Hmbs was used as a control housekeeping gene for mouse samples, and B-Actin was used for organoids, relative expression was calculated (2^-deltaCT method) and compared to the mean of control group if necessary. Primers used for RT-qPCR are listed in Table 2 (mouse primers) and Table 3 (human primers).
On the technique in general: Quantitative PCR measures a nucleic acid by following its amplification.

The subject of experiment [2] is human kidney organoids. Put plainly: RNA-seq of cisplatin-injured human kidney organoids. It counts as cell-based. As to conditions: for injury markers (Col8al, Fibronectin-1, Serpinel) / markers of intact proximal integrity (Lrp2 and Hnf4a): RNA-seq, cisplatin vs vehicle, or SK-124 vs DMSO within cisplatin-treated organoids. The protocol: FIGS. 13A-13E. Transcriptomic effects of SK-124 in cisplatin-induced human kidney organoid model. RNA-seq was performed on kidney organoid RNA samples (n=4/group) from FIG. 8. Volcano plot show gene regulated (>2-fold change, p(adj)<0.05) by cisplatin (versus vehicle, A) or within cisplatin-treated organoids by SK-124 (versus DMSO control, B). In Volcano plot, representative fibrosis/injury markers (Col8a1, Fni, Serpinel) and proximal tubule integrity (Lrp2 and Hnf4a) are shown. Scatterplot (C) and heatmap (D) showing integration of individual RNA-seq comparisons.
Isolated RNA samples from the mouse adenine diet study and human kidney organoid experiment were submitted to Novogene and bulk-RNA sequencing on NovaSeq X Plus Ilumina Novoseq Platform. Sequencing reads were mapped to the mouse reference genome (mm10/GRCm38) or human reference genome (GRCh38/hg38) using Salmon and differential gene expression analysis was performed using DESeq2.

[3] abbreviates: 5 cisplatin treatments (FIG. 8).
[4] abbreviates: 5 cisplatin treatments (FIG. 8), Co18a1 [sic].
Where [5] appears, read: dose response, five cisplatin cycles (FIG. 12).
Setting [6] is: dose response, five cisplatin cycles (FIG. 12A).
Where [7] appears, read: time course, indicated number of cisplatin cycles, SK-124 10 μM (FIG. 10A).
The mark [8] stands for this setting: time course, indicated number of cisplatin cycles, SK-124 10 μM (FIG. 10B).

The structures appear in SMILES notation. “Also recorded” adds a separate entry of the source.

As to `N.N.[Cl][Pt][Cl]` [cisplatin, reference compound], in the experiment with human kidney organoids [1] (setting [3]), the Fibronectin-1 expression entry was “induced”, the Lrp2 expression result is reported as “reduced” and the Pai-1 expression entry is reported as “induced”. Moreover, in the experiment on human kidney organoids [1] (setting [4]), the Col8a1 expression result is “induced”. In the experiment with human kidney organoids [1] (setting [5]), the Col8al expression result was “induction”, the Fibronectin-1 expression result is listed as “induction” and the Pai-1 expression entry is reported as “induction”. For the same compound, in the experiment with human kidney organoids [1] (setting [6]), the Lrp2 expression result was “suppression”, the Pth1r expression entry is “suppression” and the “proximal tubule marker genes” value is reported as “reduced”. Besides, in the experiment with human kidney organoids [1] (dose response), the fibrosis/injury marker genes result was “induced”. In the experiment on human kidney organoids [1] (setting [7]), the Lrp2 expression entry is given as “progressively reduced” and the Slc17a2 expression entry is “progressively reduced”. Also, in the experiment on human kidney organoids [1] (setting [8]), the Col8a1 expression result is “induced”, the “Fibronectin-1 (FN-1) expression” value was “induced” and the Pai-1 expression result is “induced”. Moreover, in the experiment on human kidney organoids [2], the “injury markers (Col8al, Fibronectin-1, Serpinel)” value was “induced”; the “markers of intact proximal integrity (Lrp2 and Hnf4a)” value is “reduced”.
Regarding `CCc1nnc(-c2c(OC)cc(-c3cnc4cc(-c5cnn(C)c5)ccn34)cc2OC)o1` [SK-124, 2-[2,6-Dimethoxy-4-[7-(1-methylpyrazol-4-yl)imidazo[1,2-a]pyridin-3-yl]phenyl]-5-ethyl-1,3,4-oxadiazole], in the experiment on human kidney organoids [1] (setting [3]), the Fibronectin-1 expression entry is “reduced; also recorded: blocked”, the Lrp2 expression entry is “rescued; also recorded: preserved expression” and the Pai-1 expression result is given as “reduced; also recorded: blocked”. In addition, the Col8a1 expression result in the experiment with human kidney organoids [1] (setting [4]) is “reduced; also recorded: blocked”. In the experiment on human kidney organoids [1] (dose response, cisplatin-injured organoids), the “doses at which therapeutic effects are noted in the injury model” value is recorded as “below 1 μM”. For the same compound, in the experiment on human kidney organoids [1] (setting [5]), the Col8al expression entry is listed as “suppressed”, the Fibronectin-1 expression result is “suppressed” and the Pai-1 expression result is “suppressed”. In the experiment on human kidney organoids [1] (setting [6]), the Lrp2 expression entry was “dose-dependent restoration”, the Pth1r expression result was “dose-dependent restoration” and the “proximal tubule marker genes” value was “increased”. Moreover, the fibrosis/injury marker genes result with human kidney organoids [1] (dose response) is reported as “reduced”. In addition, in the experiment on human kidney organoids [1] (setting [7]), the Lrp2 expression entry is “restored; also recorded: improved expression” and the Slc17a2 expression result is “restored; also recorded: improved expression”. Further, in the experiment with human kidney organoids [1] (setting [8]), the Col8a1 expression entry is “suppressed expression”, the “Fibronectin-1 (FN-1) expression” value is “suppressed expression” and the Pai-1 expression result was “suppressed expression”. For the same compound, in the experiment on human kidney organoids [2], the “injury markers (Col8al, Fibronectin-1, Serpinel)” value is “reduced”; the “markers of intact proximal integrity (Lrp2 and Hnf4a)” value is given as “restored”. Also, in the experiment with human kidney organoids [2] (scatterplot and heatmap, SK-124 vs DMSO in the setting of injury), the “genes regulated in cisplatin (versus control)” value was “conversely regulated”.
